“And” between values parts separate entries of the source, which are not always exact repeats. Identical values can stand only once. Inconclusive results and toxic doses are left out.
Test system: P1534 leukemia ip, CD2F1 mice, survival T/C
Test: NCI In Vivo Anticancer Drug Screen. Data for tumor model P1534 Leukemia (intraperitoneal) in CD2F1 (CDF1) mice
Settings: higher = longer survival
Description: The antitumor activity of compounds was measured in mice bearing transplantable tumors. Survival or tumor size were measured and the results are expressed as the measurement made in the treated group (T) divided by the measurement made in the vehicle treated control group (C). The tumor model used in this assay is P1534 Leukemia (intraperitoneal) in CD2F1 (CDF1) mice

[1] = endpoint: mean survival time, dose: 6.25 mg/kg/injection, schedule: Q01DX010 (ip), vehicle: saline
[2] = endpoint: mean survival time, dose: 12.5 mg/kg/injection, schedule: Q01DX010 (ip), vehicle: saline
[3] = endpoint: mean survival time, dose: 25.0 mg/kg/injection, schedule: Q01DX010 (ip), vehicle: saline
[4] = endpoint: mean survival time, dose: 50.0 mg/kg/injection, schedule: Q01DX010 (ip), vehicle: saline
[5] = endpoint: mean survival time, dose: 100.0 mg/kg/injection, schedule: Q01DX010 (ip), vehicle: saline
[6] = endpoint: mean survival time, dose: 200.0 mg/kg/injection, schedule: Q01DX010 (ip), vehicle: saline
[7] = endpoint: mean survival time, dose: 400.0 mg/kg/injection, schedule: Q01DX010 (ip), vehicle: saline

In the case of `O=CC1CO1` (stereo not given), the T/C (endpoint: mean survival time, dose: 13.0 mg/kg/injection, schedule: Q01DX010 (ip), vehicle: saline) is reported as 107 % of control, the T/C (endpoint: mean survival time, dose: 19.0 mg/kg/injection, schedule: Q01DX010 (ip), vehicle: saline) is reported as 107 % of control and the T/C (endpoint: mean survival time, dose: 29.0 mg/kg/injection, schedule: Q01DX010 (ip), vehicle: saline) is reported as 111 % of control. The T/C (endpoint: mean survival time, dose: 29.0 mg/kg/injection, schedule: Q01DX010 (ip), vehicle: steriod suspending solution) was 100 % of control, the T/C (endpoint: mean survival time, dose: 44.0 mg/kg/injection, schedule: Q01DX010 (ip), vehicle: saline) was 100 % of control and the T/C (endpoint: mean survival time, dose: 44.0 mg/kg/injection, schedule: Q01DX010 (ip), vehicle: steriod suspending solution) was 86 % of control.

In the case of `O=NN(CCCl)C(=O)NCCCl`, the T/C [1] is reported as 265 % of control and 290 % of control and the T/C [2] is reported as 150 % of control and 170 % of control.

For `CCCCCCCCCCCCNCCCCCCCCCCCC`, the T/C (endpoint: mean survival time, dose: 5.0 mg/kg/injection, schedule: Q01DX010 (ip), vehicle: other) was 106 % of control and the T/C (endpoint: mean survival time, dose: 10.0 mg/kg/injection, schedule: Q01DX010 (ip), vehicle: other) was 98 % of control.

For `COc1cc2c(c3c1c(=O)c1ccccc1n3C)C=CC(C)(C)O2`, the T/C (endpoint: mean survival time, dose: 6.25 mg/kg/injection, schedule: Q01DX010 (ip), vehicle: other) was 108 % of control, the T/C (endpoint: mean survival time, dose: 12.5 mg/kg/injection, schedule: Q01DX010 (ip), vehicle: other) was 108 % of control and the T/C (endpoint: mean survival time, dose: 25.0 mg/kg/injection, schedule: Q01DX010 (ip), vehicle: other) was 116 % of control. For the same molecule, the T/C (endpoint: mean survival time, dose: 50.0 mg/kg/injection, schedule: Q01DX010 (ip), vehicle: other) was 91 % of control and the T/C (endpoint: mean survival time, dose: 100.0 mg/kg/injection, schedule: Q01DX010 (ip), vehicle: other) was 116 % of control.

In the case of `CCCNc1ncnc2[nH]ncc12`, the T/C (endpoint: mean survival time, dose: 3.13 mg/kg/injection, schedule: Q01DX010 (ip), vehicle: saline) is reported as 100 % of control, the T/C [1] is reported as 88 % of control and 100 % of control and the T/C [2] is reported as 111 % of control and 100 % of control. For the same molecule, the T/C [3] was 94 % of control and 100 % of control.

With `O=C(O)c1cc(C(=O)O)[nH]n1` the T/C (endpoint: mean survival time, dose: 100.0 mg/kg/injection, schedule: Q01DX010 (ip), vehicle: water) was 103 % of control and the T/C (endpoint: mean survival time, dose: 150.0 mg/kg/injection, schedule: Q01DX010 (ip), vehicle: water) was 103 % of control.

`OCC1OC(n2cnc3c(=S)nc[nH]c32)C(O)C1O` (stereo not given) was tested, and the T/C (endpoint: mean survival time, dose: 20.0 mg/kg/injection, schedule: Q01DX010 (ip), vehicle: saline) was 111 % of control and the T/C (endpoint: mean survival time, dose: 40.0 mg/kg/injection, schedule: Q01DX010 (ip), vehicle: saline) was 111 % of control and 122 % of control.

`COc1ccc2c(c1OC)CN1CCc3cc4c(cc3C1C2)OCO4` (stereo not given) was tested, and the T/C [4] was 107 % of control, the T/C [5] was 92 % of control and the T/C [6] was 88 % of control. The T/C [7] was 100 % of control.

In the case of `CC(/C=N/N=C(N)N)=N\NC(N)=S`, the T/C [4] is reported as 100 % of control, the T/C [5] is reported as 100 % of control and the T/C [6] is reported as 100 % of control.

In the case of `CC(O)CCc1ccc(O)cc1` (stereo not given), the T/C (endpoint: mean survival time, dose: 18.8 mg/kg/injection, schedule: Q01DX010 (ip), vehicle: saline) is reported as 100 % of control, the T/C (endpoint: mean survival time, dose: 37.5 mg/kg/injection, schedule: Q01DX010 (ip), vehicle: saline) is reported as 92 % of control and the T/C (endpoint: mean survival time, dose: 75.0 mg/kg/injection, schedule: Q01DX010 (ip), vehicle: saline) is reported as 92 % of control. The T/C (endpoint: mean survival time, dose: 150.0 mg/kg/injection, schedule: Q01DX010 (ip), vehicle: saline) was 100 % of control.

`Nc1nc(N)c2nc(CNc3ccc(C(=O)NC(CCC(=O)O)C(=O)O)cc3)cnc2n1` (stereo not given) was tested, and the T/C (endpoint: mean survival time, dose: 25.0 micrograms/kg/injection, schedule: Q01DX010 (ip), vehicle: other) was 109 % of control, the T/C (endpoint: mean survival time, dose: 50.0 micrograms/kg/injection, schedule: Q01DX010 (ip), vehicle: other) was 113 % of control and 122 % of control and the T/C (endpoint: mean survival time, dose: 100.0 micrograms/kg/injection, schedule: Q01DX010 (ip), vehicle: other) was 159 % of control. The T/C (endpoint: mean survival time, dose: 200.0 micrograms/kg/injection, schedule: Q01DX010 (ip), vehicle: other) was 95 % of control and 100 % of control, the T/C (endpoint: median survival time, dose: 0.05 mg/kg/injection, schedule: Q01DX009 (ip), vehicle: sodium bicarbonate) was 164 % of control and the T/C (endpoint: median survival time, dose: 0.1 mg/kg/injection, schedule: Q01DX009 (ip), vehicle: sodium bicarbonate) was 93 % of control.

In the case of `NC(Cn1ccc(=O)c(O)c1)C(=O)O` (stereo not given), the T/C (endpoint: mean survival time, dose: 118.0 mg/kg/injection, schedule: Q01DX010 (ip), vehicle: saline) is reported as 92 % of control, the T/C (endpoint: mean survival time, dose: 178.0 mg/kg/injection, schedule: Q01DX010 (ip), vehicle: saline) is reported as 92 % of control and the T/C (endpoint: mean survival time, dose: 267.0 mg/kg/injection, schedule: Q01DX010 (ip), vehicle: saline) is reported as 92 % of control.

`O=c1ccc2ccccc2o1` was tested, and the T/C [4] was 107 % of control, the T/C [5] was 107 % of control and the T/C [6] was 107 % of control.

With `CCCCOP(=S)(N1CC1)N1CC1` the T/C (endpoint: mean survival time, dose: 4.0 mg/kg/injection, schedule: Q01DX010 (ip), vehicle: saline) was 115 % of control and the T/C (endpoint: mean survival time, dose: 8.0 mg/kg/injection, schedule: Q01DX010 (ip), vehicle: saline) was 123 % of control.

`O=C1C(=O)N(CN2CCOCC2)c2ccccc21` was tested, and the T/C [4] was 100 % of control, the T/C [5] was 100 % of control and the T/C [6] was 96 % of control. The T/C [7] was 103 % of control.

For `COc1cc2c(c(OC)c1OC)-c1ccc(OC)c(=O)cc1[C@@H](NC(C)=O)CC2`, the T/C (endpoint: mean survival time, dose: 0.04 mg/kg/injection, schedule: Q01DX010 (ip), vehicle: saline) was 100 % of control, the T/C (endpoint: mean survival time, dose: 0.05 mg/kg/injection, schedule: Q01DX010 (ip), vehicle: saline) was 123 % of control and the T/C (endpoint: mean survival time, dose: 0.06 mg/kg/injection, schedule: Q01DX010 (ip), vehicle: saline) was 100 % of control. For the same molecule, the T/C (endpoint: mean survival time, dose: 0.12 mg/kg/injection, schedule: Q01DX010 (ip), vehicle: saline) was 188 % of control, the T/C (endpoint: mean survival time, dose: 0.18 mg/kg/injection, schedule: Q01DX010 (ip), vehicle: saline) was 213 % of control and the T/C (endpoint: mean survival time, dose: 0.2 mg/kg/injection, schedule: Q01DX015 (ip), vehicle: saline) was 161 % of control. For the same molecule, the T/C (endpoint: mean survival time, dose: 0.2 mg/kg/injection, schedule: Q02DX008 (ip), vehicle: saline) was 174 % of control, the T/C (endpoint: mean survival time, dose: 0.27 mg/kg/injection, schedule: Q01DX010 (ip), vehicle: saline) was 253 % of control and the T/C (endpoint: mean survival time, dose: 0.3 mg/kg/injection, schedule: Q01DX015 (ip), vehicle: saline) was 212 % of control. The T/C (endpoint: mean survival time, dose: 0.3 mg/kg/injection, schedule: Q02DX008 (ip), vehicle: saline) was 159 % of control, the T/C (endpoint: mean survival time, dose: 0.45 mg/kg/injection, schedule: Q01DX015 (ip), vehicle: saline) was 257 % of control and the T/C (endpoint: mean survival time, dose: 0.45 mg/kg/injection, schedule: Q02DX008 (ip), vehicle: saline) was 261 % of control. The T/C (endpoint: mean survival time, dose: 0.67 mg/kg/injection, schedule: Q02DX008 (ip), vehicle: saline) was 318 % of control, the T/C (endpoint: mean survival time, dose: 0.9 mg/kg/injection, schedule: Q## X004 (ip), vehicle: saline) was 348 % of control and the T/C (endpoint: mean survival time, dose: 1.0 mg/kg/injection, schedule: Q02DX008 (ip), vehicle: saline) was 304 % of control. The T/C (endpoint: mean survival time, dose: 1.0 mg/kg/injection, schedule: Q## X032 (ip), vehicle: saline) was 242 % of control, the T/C (endpoint: mean survival time, dose: 1.1 mg/kg/injection, schedule: Q01DX001 (ip), vehicle: saline) was 255 % of control and the T/C (endpoint: mean survival time, dose: 1.3 mg/kg/injection, schedule: Q## X004 (ip), vehicle: saline) was 328 % of control. For the same molecule, the T/C (endpoint: mean survival time, dose: 1.6 mg/kg/injection, schedule: Q## X032 (ip), vehicle: saline) was 352 % of control, the T/C (endpoint: mean survival time, dose: 1.7 mg/kg/injection, schedule: Q01DX001 (ip), vehicle: saline) was 208 % of control and the T/C (endpoint: mean survival time, dose: 2.4 mg/kg/injection, schedule: Q## X032 (ip), vehicle: saline) was 240 % of control. For the same molecule, the T/C (endpoint: mean survival time, dose: 2.5 mg/kg/injection, schedule: Q01DX001 (ip), vehicle: saline) was 241 % of control.

With `O=C(O)c1[nH]c(=O)[nH]c(=O)c1F` the T/C (endpoint: mean survival time, dose: 1.25 mg/kg/injection, schedule: Q01DX010 (ip), vehicle: saline) was 106 % of control, the T/C (endpoint: mean survival time, dose: 5.0 mg/kg/injection, schedule: Q01DX010 (ip), vehicle: saline) was 236 % of control and the T/C (endpoint: mean survival time, dose: 10.0 mg/kg/injection, schedule: Q01DX010 (ip), vehicle: saline) was 106 % of control.

For `OCCN1CCC(CCCC2CCNCC2)CC1`, the T/C [2] was 96 % of control, the T/C [3] was 93 % of control and the T/C [4] was 89 % of control.
